From patent US20110223167A1, “COMBINATION THERAPY USING RECEPTOR TYROSINE KINASE INHIBITORS AND ANGIOGENESIS INHIBITORS” (priority 2001, published 2011) come the findings set out here.

For the assay, the system named is progressive squamous cell carcinoma of the superior maxilla. Particulars: for tumor response: weekly: 1200 mg/m^2 Cilengitide Monday and Friday, 200 mg EMD 72000 followed by 1000 mg/m^2 gemcitabine Thursday, from November 2000; for effect on tumor growth: cisplatin (75 mg/m^2) and docetaxel (75 mg/m^2) together, three administrations, from August 1999.
Setting [1] is: EMD 121974 (600 mg/m^2) combined with gemcitabine (1000 mg/m^2), since mid of January 2000.

Experimental: Case History and Clinical Findings/Status at the Start of the Compassionate use Treatment:
A biopsy of the suspected large tumor in the upper maxilla was performed. […] On Aug. […] Due to the unfavourable histologic classification the patient received a post-operative radiation therapy up to 50.4 Gray from September to October 1997.
In July 1998 progression of disease was suspected which led to hospitalization. […] After consultation of radiotherapists another radiotherapy was recommended which started in August 1998. The patient was treated simultaneously with gemcitabine (100 mg) as a radiosensitizer. […] Following the combined radio-chemotherapy the patient received a therapy with 1000 mg gemcitabine (5 circles of 16 administrations).
In March 1999 again progression of the carcinoma occurred which led to additional radiation therapy and palliative resection of the tumor.
Diffuse bleedings out of the large tumor mass required frequent transfusions of erythrocyte concentrates.
Course of Compassionate Use Treatment with Anti-Angiogenic Agent/Chemotherapeutic Agents:
The patient was treated with EMD 121974 and Gemzar from Nov. 17, 1999 until Mar. 30, 2000. From Jun. 04, 2000 until Apr. […] Chemotherapy-treatment was stopped because of haematotoxicity and Cilengitide treatment was continued alone.
The patient's condition worsened after several weeks and the patient was treated with an increased dose of 1200 mg/m^2 EMD 121974 twice weekly.
Treatment with h425+Cilengitide+Chemotherapeutics:
EMD 72000 was first given in November 2000 in a dosage of 200 mg (infusion over half an hour) after premedication with dexamethasone/dimetindenmaleate (Fenistil) and ranitidin (Zantic). One week later the patient received additionally gemcitabine (1000 mg/m^2). The weekly treatment schedule was: Monday: 1200 mg/m^2 Cilengitide (one hour is infusion), Thursday 200 mg EMD 72000 (half an hour infusion) followed by 1000 mg/m^2 gemcitabine (one hour infusion), Friday 1200 mg/m^2 Cilengitide (one hour infusion). […] The tumor masses were surgically removed at several occasions.

Regarding `CC(C)[C@H]1C(=O)N[C@@H](CCCN=C(N)N)C(=O)NCC(=O)N[C@@H](CC(=O)O)C(=O)N[C@H](Cc2ccccc2)C(=O)N1C` [EMD 121974, Cyclo-(Arg-Gly-Asp-DPhe-NMeVal)], the tumor response result was “crater-like disintegration of the tumor mass”. Besides, where the note is “EMD 121974 (600 mg/m^2) combined with gemcitabine (1000 mg/m^2)”, the “surface of the tumor” value is “signs of granulation and wound healing”. Besides, the tumor bleeding entry (EMD 121974 (600 mg/m^2) combined with gemcitabine (1000 mg/m^2), no need for further transfusions) was “Bleeding stopped”. For the same molecule, under setting [1], the hearing entry was “able to hear again on their right ear” and the “increase of mouth opening compared with December 1999” value is 30%. Further, for the setting “EMD 121974 alone, 600 mg/m^2 twice a week, April to June 2000”, the disease status entry is listed as “stable disease”.
On to `N.N.[Cl][Pt][Cl]` [cisplatin, reference compound], for which the “effect on tumor growth” value is “lack of effect on tumor growth”.
On the same count and under the same terms, the value for `CC(=O)O[C@@]12CO[C@@H]1C[C@H](O)[C@@]1(C)C(=O)[C@H](O)C3=C(C)[C@@H](OC(=O)[C@H](O)[C@@H](NC(=O)OC(C)(C)C)c4ccccc4)C[C@@](O)([C@@H](OC(=O)c4ccccc4)[C@H]21)C3(C)C` [docetaxel, reference compound] was “lack of effect on tumor growth”.
As to `Nc1ccn([C@@H]2O[C@H](CO)[C@@H](O)C2(F)F)c(=O)n1` [gemcitabine, reference compound], for the setting “radiotherapy with simultaneous gemcitabine (100 mg) as radiosensitizer, 6 week-therapy from August 1998”, the “tumor response (clinical remission)” value was “complete clinical remission”.
On to “EMD 72000: Monoclonal human antibody 425 (h425), Merck KgaA, Germany; anti-EGFR antibody”, for which the tumor response entry was “crater-like disintegration of the tumor mass”.
